From PubChem BioAssay (NCI)
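These data come from cells grown in 96-well plates and exposed to compound for 48 hours at five concentrations. GI50 = concentration required for 50% inhibition of growth. TGI: concentration producing complete growth inhibition.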

Experiments:
Test in all cases: NCI tumour cell line growth inhibition, 48 h
DU-145 prostate = test system: DU-145 prostate
EKVX NSCLC = test system: EKVX NSCLC
HS 578T breast = test system: HS 578T breast
PC-3 prostate = test system: PC-3 prostate
SK-MEL-2 melanoma = test system: SK-MEL-2 melanoma
DMS 273 small cell lung = test system: DMS 273 small cell lung
KM20L2 colon = test system: KM20L2 colon
LXFL 529 NSCLC = test system: LXFL 529 NSCLC
M19-MEL melanoma = test system: M19-MEL melanoma

| Compound | GI50 (DU-145 prostate) [µM] | TGI (DU-145 prostate) [µM] | GI50 (EKVX NSCLC) [µM] | TGI (EKVX NSCLC) [µM] | GI50 (HS 578T breast) [µM] | TGI (HS 578T breast) [µM] | GI50 (PC-3 prostate) [µM] | TGI (PC-3 prostate) [µM] | GI50 (SK-MEL-2 melanoma) [µM] | TGI (SK-MEL-2 melanoma) [µM] | TGI (DMS 273 small cell lung) [µM] | TGI (KM20L2 colon) [µM] | TGI (LXFL 529 NSCLC) [µM] | TGI (M19-MEL melanoma) [µM] |
| --- | --- | --- | --- | --- | --- | --- | --- | --- | --- | --- | --- | --- | --- | --- |
| O=C(/C=C/c1ccc([N+](=O)[O-])o1)NNC(=O)c1cc2ccccc2cc1O | 0.998 | 4.3 | 7.2 | > 100 | 6.21 | > 100 | 3.36 | > 100 | 1.44 | 3.97 | – | – | – | – |
| Cc1ccc2c(c1)sc(-c1ccc(N(C)C)cc1)[n+]2C | 1.95 | 32 | 0.379 | > 100 | 6.39 | > 87.7 | 0.677 | 9.23 | 4.25 | > 38 | – | – | – | – |
| COc1cccc2c(=O)c3c(sc12)c(NCCCN)nc1ccccc13 | 1.48 | 2.82 | 1.43 | 2.81 | – | – | 1.58 | 3.14 | 2 | 4.15 | – | – | – | – |
| CC1(C)C(=O)/C(=C\c2ccco2)C[C@]2(C)[C@H]3CC=C4[C@@H]5C[C@](C)(C(=O)O)CC[C@]5(C)CC[C@@]4(C)[C@]3(C)CC[C@@H]12 | 9.87 | 24.2 | 4.63 | 17.3 | 18.4 | > 100 | 3.93 | 23.1 | 15.1 | 36.8 | – | – | – | – |
| Cc1ccc(S(=O)(=O)ON/N=C2/C3OC3[C@@H]3CCCC[C@H]23)cc1 (some centres undefined) | – | – | – | > 100 | – | – | – | – | – | > 100 | > 100 | > 100 | > 100 | > 100 |
| COC1C(=O)CCC2(CO2)C1(O)C1(C)OC1CCC(C)C (centres undefined) | – | > 100 | – | > 100 | – | > 100 | – | > 100 | – | – | – | – | – | – |
| O=C1Cc2c(-c3ccccc3)cc(-c3cccc(Cl)c3)nc2-c2ccccc2N1 | – | 11.8 | – | 12.6 | – | 9.85 | – | 23.2 | – | 24.4 | – | – | – | – |
| CCN(CC)C(=S)SSC1CCCCC1 | 20.3 | 45.5 | 30.5 | 91.2 | 27.4 | 88.2 | 17.8 | 42.6 | 26.7 | 61.2 | – | – | – | – |
| C=C1C(O)C2C(=C(CC(C)C)C13CC3)C(=O)C(C)(C)C2OC (centres undefined) | > 100 | > 100 | > 100 | > 100 | > 100 | > 100 | > 100 | > 100 | > 100 | > 100 | – | – | – | – |
| O=C(Nc1ccc(Br)cc1)c1cc(Br)cc(Br)c1O | 3.56 | 19.9 | 1.76 | 7.38 | 2.71 | 7.74 | 2.65 | 8.82 | 2.27 | 6.12 | – | – | – | – |
| CN(C)CN1C(=O)S/C(=C2\C(=O)N(CN(C)C)c3ccccc32)C1=O | – | > 100 | – | > 100 | – | > 100 | – | > 100 | – | > 100 | – | – | – | – |
| Cc1ccc(C)c(NC(=O)/C(=N\NC(N)=S)C(C#N)c2ccccc2)c1 (centres undefined) | – | – | – | > 100 | – | – | – | – | – | > 100 | > 100 | > 100 | > 100 | > 100 |
| N#C/C(=C(\O)C(=O)O)c1ccc(-c2cccc3ccccc23)cc1 | – | > 100 | – | > 100 | – | > 100 | – | > 100 | – | > 100 | – | – | – | – |
| O=C1OCC2=Nc3cccc4cccc(c34)N12 | – | > 100 | – | > 100 | – | > 100 | – | > 100 | – | – | – | – | – | – |
| CCCCc1cc(O)ccc1O | 80.7 | > 100 | 41.9 | > 100 | 18.7 | > 100 | 10.5 | > 100 | 35.8 | > 100 | – | – | – | – |
| Cc1cc(O)cc(C)c1/C=C/c1cncc(C(=O)N(C)C)c1 | > 25 | > 25 | > 25 | > 25 | > 25 | > 25 | > 25 | > 25 | > 25 | > 25 | – | – | – | – |
| C=C1C(=O)O[C@H]2[C@H]1CC/C(COC(=O)c1ccc(C(=O)O)s1)=C\CC[C@@]1(C)O[C@@H]21 | 1.59 | 3.13 | 2.21 | 5.68 | 4.79 | 64.5 | 2.9 | 11.4 | 2.29 | 5.22 | – | – | – | – |
| O=C(O)C(Cc1ccc(O)c([N+](=O)[O-])c1)N1C(=O)c2ccccc2C1=O (centres undefined) | – | > 100 | – | > 100 | – | > 100 | – | > 100 | – | > 100 | – | – | – | – |
| O=C(N/N=C/c1ccc(F)cc1)c1[nH]c2ccc(I)cc2c1-c1ccccc1 | 0.479 | 2.46 | 0.47 | > 26.9 | 0.235 | 0.642 | 0.541 | > 86.4 | 10.9 | > 100 | – | – | – | – |
| Nc1ncnc2c1ncn2C1OC(C(=O)O)C(O)C1O (centres undefined) | – | > 100 | – | > 100 | – | > 100 | – | > 100 | – | > 100 | – | – | – | – |
| OC1CCC(C2C3CCCCC3C3CCCCC3C2C2CCC(O)CC2)CC1 (centres undefined) | – | > 100 | – | > 100 | – | > 100 | – | > 100 | – | 25.3 | – | – | – | – |
| CCC(=O)N1C/C(=C/c2ccc(OC)cc2)C(=O)/C(=C/c2ccc(OC)cc2)C1 | 2.91 | 10.6 | – | – | 2.35 | 7.47 | 2.17 | 7.94 | 2.53 | 5.38 | – | – | – | – |
| CCc1ccc(C2=C(O)C(=O)C(c3ccc(CC)cc3)=C(O)C2=O)cc1 | 2.81 | 10.6 | 2.35 | 8.64 | 1.72 | 6.58 | 2.17 | 7.95 | 1.18 | 3.35 | – | – | – | – |
| O=c1c(OC/C(=N/O)c2ccccc2)c(-c2ccccc2)oc2ccccc12 | 17.1 | > 50 | 12.3 | 30.1 | – | – | 8.64 | 18 | 16.4 | > 50 | – | – | – | – |
| C=C(CNCCO)[C@@H]1CC[C@]2(CO)CC[C@]3(C)[C@H](CC[C@@H]4[C@@]5(C)CCC(NCCc6ccc(O)cc6)C(C)(C)[C@@H]5CC[C@]43C)[C@@H]12 (some centres undefined) | 1.6 | 3.03 | 1.46 | 3.11 | 1.49 | 3.7 | 1.38 | 3.07 | 1.66 | 3.18 | – | – | – | – |
